Laboratory results: patent US10457707B2, “Substituted urea depsipeptide analogs as activators of the CLPP endopeptidase” (priority 2015, dated 2019)
≈ marks a conversion by molar mass, not a printed value. Where two headings read alike, the source gives them in different places. *1 amine or outer side, *2 acyl side, *3 side chain or, on linkers, in order; H or OH if unused. Where a SMILES comes first, the peptide text is derived from it. Bridges are numbered along the chain shown (N, C = ends). [ ]: non-standard residue; d: D form. The star is where a group is joined. ξ: configuration not given here. NH(1,3-benzodioxol-5-yl) = c1cc2c(cc1N*)OCO2; Phe(3,5-F2) = N[C@@H](Cc1cc(F)cc(F)c1)C(=O)O; NH(4-OCF3-phenyl) = FC(F)(F)Oc1ccc(N*)cc1; Pro(4S-Me) = C[C@@H]1CN[C@H](C(=O)O)C1; Pro(4R-Me) = C[C@H]1CN[C@H](C(=O)O)C1; X11 = O=C(C1C[C@@H](F)CN1[*:1])[*:2]; X9 = CC1(C)CC(C(=O)[*:2])N([*:1])C1; ξPro(4S-Me) = C[C@@H]1CNC(C(=O)O)C1; ξPro(4R-Me) = C[C@H]1CNC(C(=O)O)C1; Hyp = O=C(O)[C@@H]1C[C@@H](O)CN1; NH(4-Me-phenyl) = Cc1ccc(N*)cc1; aThr = C[C@H](O)[C@H](N)C(=O)O; X5 = O=C(C1COCCN1[*:1])[*:2]; Pip = O=C(O)[C@@H]1CCCCN1; NMeA = CN[C@@H](C)C(=O)O; ξPip = O=C(O)C1CCCCN1; CO = O=C([*:1])[*:2]; ξP = O=C(O)C1CCCN1

Columns and labels:
Assay type in all cases: cell-based
[1] = tested on: Bacillus subtilis, ATCC 23857; test: Minimal inhibitory concentration assay (microbroth dilution)
Procedure: (§1) It is understood, that in various aspects, the MIC is determined by a microbroth dilution method. In a further aspect, the MIC is determined by a microbroth dilution method using Staphylococcus aureus, ATCC 29213. In a still further aspect, the MIC is determined by a microbroth dilution method using Staphylococcus aureus, NRS70. In a yet further aspect, the MIC is determined by a microbroth dilution method using Streptococcus pyogenes, ATCC 700294. In an even further aspect, the MIC is determined by a microbroth dilution method using Streptococcus pneumoniae, DAW27. In a still further aspect, the MIC is determined by a microbroth dilution method using Bacillus subtilis, ATCC 23857. In a yet further aspect, the MIC is determined by a microbroth dilution method using Enterococcus faecalis, ATCC 33186. In an even further aspect, the MIC is determined using Staphylococcus aureus, USA 300. In a still further aspect, the MIC is determined using Streptococcus pneumoniae, R6. In a further aspect, the MIC is determined using Staphylococcus aureus, USA 300 and compared to the MIC determined using Staphylococcus aureus, USA 300 wherein ClpP is inactivated, thus allowing confirmation that killing is via a ClpP-dependent pathway.
(§2) Minimal inhibitory concentrations (“MICs”) were determined using the microbroth dilution method according to Clinical Laboratory Standards Institute (CLSI; National, C.F. C. L. S., Methods for Dilution Antimicrobial Susceptibility Tests for Bacteria Grow aerobically-Seventh Edition: Approved Standard M7-A7, CLSI, Wayne, Pa., USA, 2008) and were read by visual inspection. Two fold serial dilutions of test compound in 100 μL of the appropriate broth media were first prepared in 96-well round bottom microtiter plates (Nalgene Nunc International, Rochester, N.Y., USA). An equivalent volume (100 μL) of bacterial broth inocula containing approximately 10^5 bacterial cfu/mL was added to each well to give final concentrations of test compound starting at 200 μM. The plates were then incubated aerobically at 37° C. All strains were incubated overnight. After incubations, in all cases the MIC was recorded as the lowest concentration of drug that prevented bacterial growth. The bacterial strains for which MIC was determined as described in Table 4.

[2] = tested on: Staphylococcus aureus, ATCC 29213; test: as above; settings: ATCC29213, read-out: Minimal Inhibitory Concentrations S. aureus ATCC 29213
Procedure: as §1, §2

[3] = tested on: Staphylococcus aureus, NRS70; test: as above
Procedure: as §1, §2

[4] = tested on: Streptococcus pyogenes, ATCC 700294; test: as above
Procedure: as §1
Minimal inhibitory concentrations (“MICs”) were determined using the microbroth dilution method according to Clinical Laboratory Standards Institute (CLSI; National, C.F. C. L. S., Methods for Dilution Antimicrobial Susceptibility Tests for Bacteria Grow aerobically-Seventh Edition: Approved Standard M7-A7, CLSI, Wayne, Pa., USA, 2008) and were read by visual inspection. Two fold serial dilutions of test compound in 100 μL of the appropriate broth media were first prepared in 96-well round bottom microtiter plates (Nalgene Nunc International, Rochester, N.Y., USA). […] The plates were then incubated aerobically at 37° C. All strains were incubated overnight. After incubations, in all cases the MIC was recorded as the lowest concentration of drug that prevented bacterial growth. The bacterial strains for which MIC was determined as described in Table 4.

[5] = tested on: Staphylococcus aureus, USA 300 wherein ClpP is inactivated; test: Minimal inhibitory concentration assay
Procedure: as §1, §2

[6] = tested on: Staphylococcus aureus, USA 300; test: Minimal inhibitory concentration assay; settings: USA300, read-out: Minimal Inhibitory Concentrations S. aureus USA 300
Procedure: as §1, §2

[7] = tested on: Streptococcus pneumoniae, R6; test: Minimal inhibitory concentration assay; settings: read-out: Minimal Inhibitory Concentrations S. pneumoniae R6
Procedure: It is understood, that in various aspects, the MIC is determined by a microbroth dilution method. […] In a still further aspect, the MIC is determined by a microbroth dilution method using Staphylococcus aureus, NRS70. […] In an even further aspect, the MIC is determined by a microbroth dilution method using Streptococcus pneumoniae, DAW27. […] In an even further aspect, the MIC is determined using Staphylococcus aureus, USA 300. In a still further aspect, the MIC is determined using Streptococcus pneumoniae, R6. In a further aspect, the MIC is determined using Staphylococcus aureus, USA 300 and compared to the MIC determined using Staphylococcus aureus, USA 300 wherein ClpP is inactivated, thus allowing confirmation that killing is via a ClpP-dependent pathway.
Two fold serial dilutions of test compound in 100 μL of the appropriate broth media were first prepared in 96-well round bottom microtiter plates (Nalgene Nunc International, Rochester, N.Y., USA). […] The plates were then incubated aerobically at 37° C. All strains were incubated overnight. After incubations, in all cases the MIC was recorded as the lowest concentration of drug that prevented bacterial growth. The bacterial strains for which MIC was determined as described in Table 4.

[8] = tested on: Enterococcus faecalis, ATCC 33186; test: Minimal inhibitory concentration assay (microbroth dilution); settings: Enterococcus faecalis, ATCC33186; read-out: Minimal Inhibitory Concentrations E. faecalis ATCC 33186
Procedure: as §1, §2

[9] = Bacillus subtilis, ATCC23857, read-out: Minimal Inhibitory Concentrations B. subtilis ATCC 23857
[10] = Staphylococcus aureus, NRS70, read-out: Minimal Inhibitory Concentrations S. aureus NRS70
[11] = Streptococcus pyogenes, ATCC700294, read-out: Minimal Inhibitory Concentrations S. pyogenes ATCC 700294
[12] = Bacillus subtilis, ATCC23857; read-out: Minimal Inhibitory Concentrations B. subtilis ATCC 23857
[13] = Staphylococcus aureus, NRS70; read-out: Minimal Inhibitory Concentrations S. aureus NRS70
[14] = Streptococcus pyogenes, ATCC700294; read-out: Minimal Inhibitory Concentrations S. pyogenes ATCC 700294

SMILES | MIC [1, 9] [µM] | MIC [2] [µM] | MIC [3, 10] [µM] | MIC [4, 11] [µM] | Minimal Inhibitory Concentrations S. aureus USA 300 ΔClpP [5] [µM] | MIC [6] [µM] | MIC [7] [µM] | MIC [1, 12] [µM] | MIC [8] [µM] | MIC [3, 13] [µM] | MIC [4, 14] [µM]
Cc1ccc(NC(=O)N[C@@H](Cc2cc(F)cc(F)c2)C(=O)N[C@H]2COC(=O)C3CC(C)(C)CN3C(=O)[C@H](C)NC(=O)C3CCCCN3C(=O)C3CCCN3C2=O)cc1 (stereo partly drawn) [Compound 49, (S)-3-(3,5-difluorophenyl)-2-(3-(p-tolyl)ureido)-N-((6S,8aS,14aS,20S,23aS)-2,2,6-trimethyl-5,8,14,19,23-pentaoxooctadecahydro-1H,5H,14H,19H-pyrido[2,1-i]dipyrrolo[2,1-c:2′,1′-l][1]oxa[4,7,10,13]tetraazacyclohexadecin-20-yl)propanamide] ({NH(4-Me-phenyl)-CO}-[Phe(3,5-F2)]S[ξP][ξPip]A[X9]; ester 2-C) | 0.4 (≈ 0.323 µg/mL) | 12.5 (≈ 10.1 µg/mL) | 12.5 (≈ 10.1 µg/mL) | 25 (≈ 20.2 µg/mL) | 100 | 25 (≈ 20.2 µg/mL) | 6.3 (≈ 5.09 µg/mL) |  |  |  | 
Cc1ccc(NC(=O)N[C@@H](Cc2cc(F)cc(F)c2)C(=O)N[C@@H]2C(=O)N3CCCC3C(=O)N3CCOCC3C(=O)N[C@@H](C)C(=O)N3C[C@H](C)CC3C(=O)O[C@H]2C)cc1 (stereo partly drawn) [Compound 47, (S)-3-(3,5-difluorophenyl)-2-(3-(p-tolyl)ureido)-N-((6aS,12S,13S,15aS,17R,21S,23aS)-13,17,21-trimethyl-6,11,15,20,23-pentaoxooctadecahydro-6H,11H,15H-[1,4]oxazino[3,4-i]dipyrrolo[2,1-c:2′,1′-l][1]oxa[4,7,10,13]tetraazacyclohexadecin-12-yl)propanamide] ({NH(4-Me-phenyl)-CO}-[Phe(3,5-F2)][aThr][ξP][X5]A[ξPro(4R-Me)]; ester 2-C) | 0.8 (≈ 0.648 µg/mL) | 0.003 (≈ 0.00243 µg/mL) | 0.0002 (≈ 0.000162 µg/mL) | 0.02 (≈ 0.0162 µg/mL) | >200 | 0.01 (≈ 0.0081 µg/mL) | 0.002 (≈ 0.00162 µg/mL) |  |  |  | 
C[C@@H]1NC(=O)[C@@H]2CCCCN2C(=O)[C@@H]2CCCN2C(=O)[C@@H](NC(=O)[C@H](Cc2cc(F)cc(F)c2)NC(=O)Nc2ccc3c(c2)OCO3)[C@H](C)OC(=O)[C@@H]2CCCN2C1=O [Compound 17, (S)-2-(3-(benzo[d][1,3]dioxol-5-yl)ureido)-3-(3,5-difluorophenyl)-N-((6S,8aS,14aS,20S,21S,23aS)-6,21-dimethyl-5,8,14,19,23-pentaoxooctadecahydro-1H,5H,14H,19H-pyrido[2,1-i]dipyrrolo[2,1-c:2′,1′-l][1]oxa[4,7,10,13]tetraazacyclohexadecin-20-yl)propanamide] ({NH(1,3-benzodioxol-5-yl)-CO}-[Phe(3,5-F2)][aThr]P[Pip]AP; ester 2-C) |  | 3.1 (≈ 2.55 µg/mL) |  |  | 200 | 3.1 (≈ 2.55 µg/mL) |  | 0.4 (≈ 0.33 µg/mL) | < 0.1 | 3.1 (≈ 2.55 µg/mL) | 1.5 (≈ 1.24 µg/mL)
C[C@H]1CC2C(=O)O[C@@H](C)[C@H](NC(=O)[C@H](Cc3cc(F)cc(F)c3)NC(=O)Nc3ccc(OC(F)(F)F)cc3)C(=O)N3CCCC3C(=O)N(C)[C@@H](C)C(=O)N[C@@H](C)C(=O)N2C1 (stereo partly drawn) [Compound 28, (2S)-3-(3,5-difluorophenyl)-N-((2S,6S,9S,11aS,17S,18S)-2,6,9,10,18-pentamethyl-5,8,11,16,20-pentaoxohexadecahydro-1H,5H,16H-dipyrrolo[2,1-c:2′,1′-l][1]oxa[4,7,10,13]tetraazacyclohexadecin-17-yl)-2-(3-(4-(trifluoromethoxy)phenyl)ureido)propanamide] ({NH(4-OCF3-phenyl)-CO}-[Phe(3,5-F2)][aThr][ξP][NMeA]A[ξPro(4S-Me)]; ester 2-C) |  | 0.05 (≈ 0.0426 µg/mL) |  |  |  | 0.1 (≈ 0.0852 µg/mL) | 0.029 (≈ 0.0247 µg/mL) | 0.01 (≈ 0.00852 µg/mL) |  | 0.05 (≈ 0.0426 µg/mL) | 0.23 (≈ 0.196 µg/mL)
Cc1ccc(NC(=O)N[C@@H](Cc2cc(F)cc(F)c2)C(=O)N[C@H]2COC(=O)C3C[C@@H](F)CN3C(=O)[C@H](C)NC(=O)C3CCCCN3C(=O)C3CCCN3C2=O)cc1 (stereo partly drawn) [Compound 51, (S)-3-(3,5-difluorophenyl)-N-((2R,6S,8aS,14aS,20S,23aS)-2-fluoro-6-methyl-5,8,14,19,23-pentaoxooctadecahydro-1H,5H,14H,19H-pyrido[2,1-i]dipyrrolo[2,1-c:2′,1′-l][1]oxa[4,7,10,13]tetraazacyclohexadecin-20-yl)-2-(3-(p-tolyl)ureido)propanamide] ({NH(4-Me-phenyl)-CO}-[Phe(3,5-F2)]S[ξP][ξPip]A[X11]; ester 2-C) | > 200 | 12.5 (≈ 9.97 µg/mL) | 6.3 (≈ 5.03 µg/mL) | 12.5 (≈ 9.97 µg/mL) | >200 | 12.5 (≈ 9.97 µg/mL) | 6.3 (≈ 5.03 µg/mL) |  |  |  | 
C[C@H]1C[C@H]2C(=O)O[C@@H](C)[C@H](NC(=O)[C@H](Cc3cc(F)cc(F)c3)NC(=O)Nc3ccc4c(c3)OCO4)C(=O)N3CCC[C@H]3C(=O)N3CCCC[C@H]3C(=O)N[C@@H](C)C(=O)N2C1 [Compound 20, (S)-2-(3-(benzo[d][1,3]dioxol-5-yl)ureido)-3-(3,5-difluorophenyl)-N-((2R,6S,8aS,14aS,20S,21S,23aS)-2,6,21-trimethyl-5,8,14,19,23-pentaoxooctadecahydro-1H,5H,14H,19H-pyrido[2,1-i]dipyrrolo[2,1-c:2′,1′-l][1]oxa[4,7,10,13]tetraazacyclohexadecin-20-yl)propanamide] ({NH(1,3-benzodioxol-5-yl)-CO}-[Phe(3,5-F2)][aThr]P[Pip]A[Pro(4S-Me)]; ester 2-C) |  | 0.8 (≈ 0.67 µg/mL) |  |  | 200 | 0.8 (≈ 0.67 µg/mL) |  | < 0.1 | < 0.1 | 0.4 (≈ 0.335 µg/mL) | 0.4 (≈ 0.335 µg/mL)
Cc1ccc(NC(=O)N[C@@H](Cc2cc(F)cc(F)c2)C(=O)N[C@@H]2C(=O)N3C[C@H](O)C[C@H]3C(=O)N3CCCC[C@H]3C(=O)N[C@@H](C)C(=O)N3C[C@H](C)C[C@H]3C(=O)O[C@H]2C)cc1 [Compound 216, (S)-3-(3,5-difluorophenyl)-N-((2R,6S,8aS,14aS,16R,20S,21S,23aS)-16-hydroxy-2,6,21-trimethyl-5,8,14,19,23-pentaoxooctadecahydro-1H,5H,14H,19H-pyrido[2,1-i]dipyrrolo[2,1-c:2′,1′-l][1]oxa[4,7,10,13]tetraazacyclohexadecin-20-yl)-2-(3-(p-tolyl)ureido)propanamide] ({NH(4-Me-phenyl)-CO}-[Phe(3,5-F2)][aThr][Hyp][Pip]A[Pro(4R-Me)]; ester 2-C) | 0.2 (≈ 0.165 µg/mL) |  | 0.2 (≈ 0.165 µg/mL) | 0.2 (≈ 0.165 µg/mL) |  | 0.1 (≈ 0.0824 µg/mL) | 0.001 (≈ 0.000824 µg/mL) |  |  |  | 
